ChEMBL document CHEMBL1135523, “(4R,5S)/(4S,5R)-4,5-Bis(4-hydroxyphenyl)-2-imidazolines: ligands for the estrogen receptor with a novel binding mode” (J Med Chem, 2002)

Columns and labels:
Estrogen receptor = biological target: T1, Estrogen receptor (Homo sapiens, UniProt P03372); test: Agonist activity in transcriptional activation assay in MCF-7-2a cells compared to estradiol E2; format: functional, cell-based
T1 sequence (P03372 whole entry): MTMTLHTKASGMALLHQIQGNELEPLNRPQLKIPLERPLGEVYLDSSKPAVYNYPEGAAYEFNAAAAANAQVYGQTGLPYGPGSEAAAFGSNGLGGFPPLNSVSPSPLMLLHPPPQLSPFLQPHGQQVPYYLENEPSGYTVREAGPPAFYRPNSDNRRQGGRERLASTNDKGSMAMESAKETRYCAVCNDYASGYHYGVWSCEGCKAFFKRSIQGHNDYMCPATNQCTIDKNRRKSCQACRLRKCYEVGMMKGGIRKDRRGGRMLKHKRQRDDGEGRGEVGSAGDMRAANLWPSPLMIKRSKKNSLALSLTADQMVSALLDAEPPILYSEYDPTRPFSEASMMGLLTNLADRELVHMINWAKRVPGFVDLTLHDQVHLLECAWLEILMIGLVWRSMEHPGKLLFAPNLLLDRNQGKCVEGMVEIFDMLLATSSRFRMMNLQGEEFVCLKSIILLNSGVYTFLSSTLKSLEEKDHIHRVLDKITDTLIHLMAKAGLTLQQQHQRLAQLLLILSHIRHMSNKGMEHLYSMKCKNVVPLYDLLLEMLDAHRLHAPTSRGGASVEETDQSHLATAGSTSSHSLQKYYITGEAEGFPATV

[1] = biological target: Estrogen receptor (Bos taurus) (UniProt Q9XSB5+P49884); test: Displacement of 17-beta-[3H]-estradiol from Estrogen receptor of calf uterine cytosol at 20 uM; format: protein assay

| Compound | EC50 (Estrogen receptor) [nM] | Control [1] [%] |
| --- | --- | --- |
| Oc1ccc([C@@H]2N=CN[C@@H]2c2c(Cl)cc(O)cc2Cl)c(F)c1 | 620 | 40.1 |
| Oc1ccc([C@H]2NC=N[C@H]2c2ccc(O)cc2Cl)c(Cl)c1 | 380 | 44 |
| Oc1ccc([C@@H]2N=CN[C@@H]2c2c(Cl)cc(O)cc2Cl)c(Cl)c1 | 65 | 70.3 |
| Oc1ccc([C@H]2N=CN[C@H]2c2ccc(O)cc2)cc1 |  | 1.7 |
| Oc1ccc([C@H]2N=CN[C@H]2c2ccc(O)cc2F)c(F)c1 |  | 20.9 |
| Oc1ccc([C@H]2N=CN[C@H]2c2ccc(O)cc2I)c(I)c1 | 1800 | 42.9 |
| Cc1cc(O)ccc1[C@H]1N=CN[C@H]1c1ccc(O)cc1C |  | 0 |
